According to patent publication US8357717B2, “Spiro group-containing amide compounds having bradykinin 1 receptor (B1R) activity” (Gruenenthal GmbH, priority 2009, dated 2013):

The compounds below were run against T1, human B1R receptor (hB1R) (Homo sapiens, UniProt P46663) (assay: FLIPR Ca2+ functional study on bradykinin receptor 1, hB1R cells (CHO K1)). Conditions: 10 μM test substance; CHO K1 cells with human B1R; agonist Lys-Des-Arg9-bradykinin at EC80; 10 µM.
T1 construct: expressed in transfected cells; host or cells: CHO K1 cells, stably transfected
T1 sequence (P46663 1-353): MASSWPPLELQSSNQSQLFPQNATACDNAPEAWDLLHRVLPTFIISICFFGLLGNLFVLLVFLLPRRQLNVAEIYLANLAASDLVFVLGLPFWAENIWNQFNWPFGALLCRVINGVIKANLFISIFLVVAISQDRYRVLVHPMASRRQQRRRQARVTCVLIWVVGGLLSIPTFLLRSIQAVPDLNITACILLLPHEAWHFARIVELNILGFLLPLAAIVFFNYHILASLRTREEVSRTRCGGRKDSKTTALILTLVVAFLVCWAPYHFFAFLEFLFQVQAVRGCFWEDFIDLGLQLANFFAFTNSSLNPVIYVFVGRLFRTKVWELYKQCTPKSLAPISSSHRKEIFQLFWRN
Type: cell-based
Description: (§1) The agonistic or antagonistic activity of substances can be quantified on the bradykinin receptor 1 (B1R) of the species human and rat using ectopically expressing cell lines (CHO K1 cells) and with the aid of a Ca^2+-sensitive dye (Fluo-4) using a fluorescent imaging plate reader (FLIPR). The indication in % activation is based on the Ca^2+ signal after addition of Lys-Des-Arg^9-bradykinin (0.5 nM) or Des-Arg^9-bradykinin (100 nM). Antagonists lead to suppression of the Ca^2+ influx after the addition of the agonist. % Inhibition compared with the maximum achievable inhibition is indicated.
(§2) The agonistic or antagonistic activity of substances can be determined on the bradykinin receptor 1 (B1R) of the species human and rat using the following assay. According to this assay, the Ca^2+ influx through the channel is quantified with the aid of a Ca^2+-sensitive dye (Fluo-4 type, Molecular Probes Europe BV, Leiden, Netherlands) using a Fluorescent Imaging Plate Reader (FLIPR, Molecular Devices, Sunnyvale, USA).
(§3) Chinese hamster ovary cells (CHO K1 cells) which have been stably transfected with the human B1R gene (hB1R cells) or with the B1R gene of the rat (rB1R cells) are used. For functional studies, the cells are plated out on black 96-well plates having a clear base (BD Biosciences, Heidelberg, Germany or Greiner, Frickenhausen, Germany) in a density of 20,000-35,000 cells/well. The cells are left overnight at 37° C. and with 5% CO2 in culture medium (hB1R cells: Nutrient Mixture Ham's F12, Gibco Invitrogen GmbH, Karlsruhe, Germany or DMEM, Sigma-Aldrich, Taufkirchen, Germany; rB1R cells: D-MEM/F12, Gibco Invitrogen GmbH, Karlsruhe, Germany), with 10 vol. % FBS (fetal bovine serum, Gibco Invitrogen GmbH, Karlsruhe, Germany or PAN Biotech GmbH, Aidenbach, Germany). On the following day, the cells are loaded for 60 minutes at 37° C. with 2.13 μM Fluo-4 (Molecular Probes Europe BV, Leiden, Netherlands) in HBSS buffer (Hank's buffered saline solution, Gibco Invitrogen GmbH, Karlsruhe, Germany) […] (Sigma-Aldrich, Taufkirchen, Germany) and 10 mM HEPES (Sigma-Aldrich, Taufkirchen, Germany). The plates are then washed twice with HBSS buffer, and HBSS buffer additionally containing 0.1% BSA (bovine serum albumin; Sigma-Aldrich, Taufkirchen, Germany), 5.6 mM glucose and 0.05% gelatin (Merck KGaA, Darmstadt, Germany) is added to the plates. After incubation for a further 20 minutes at room temperature, the plates are inserted into the FLIPR for Ca^2+ measurement. Alternatively, washing is carried out with buffer A (15 mM HEPES, 80 mM NaCl, 5 mM KCl, 1.2 mM CaCl2, 0.7 mM MgSO4, 2 g/l glucose, 2.5 mM probenecid) followed by loading with buffer A with added 2.5 μM Fluo-4 and 0.025% Pluronic F127 (Sigma-Aldrich, Taufkirchen, Germany). The cells are then washed twice with buffer A and incubated for 30 minutes at room temperature with buffer A additionally containing 0.05% BSA and 0.05% gelatin and are then inserted into the FLIPR for Ca^2+ measurement. The Ca^2+-dependent fluorescence is measured before and after the addition of substances (λex=488 nm, λem=540 nm). Quantification is carried out by measuring the highest fluorescence intensity (FC, fluorescence counts) over time.
(§4) The FLIPR protocol consists of two substance additions. Test substances (10 μM) are first pipetted onto the cells and the Ca^2+ influx is compared with the control (hB1R: Lys-Des-Arg^9-bradykinin >=50 nM; rB1R: Des-Arg^9-bradykinin 10 μM). This gives the activation in %, based on the Ca^2+ signal after addition of Lys-Des-Arg^9-bradykinin (>=50 nM) or Des-Arg^9-bradykinin (10 μM). After 10-20 minutes' incubation, Lys-Des-Arg^9-bradykinin (hB1R) or Des-Arg^9-bradykinin (rB1R) is applied in the concentration of the EC80, and the influx of Ca^2+ is likewise determined. Antagonists lead to suppression of the Ca^2+ influx. The % inhibition compared with the maximum achievable inhibition is calculated. […]

Row | B1R antagonism, human [10 μM] % inhibition [%] | SMILES
1 | 98 | COc1cc(C)c(S(=O)(=O)N2CCCc3ccc(C(=O)N4CCC5(CC4)CCN(c4ccncc4)CC5)cc32)c(C)c1 [G_CC-056, [1-[(4-Methoxy-2,6-dimethyl-phenyl)sulfonyl]-1,2,3,4-tetrahydro-quinolin-7-yl]-(3-pyridin-4-yl-3,9-diazaspiro[5.5]undecan-9-yl)-methanone]

What follows are compounds tested against T2, B1R receptor of the rat (rB1R) (Rattus norvegicus, UniProt P97583) (assay: FLIPR Ca2+ functional study on bradykinin receptor 1, rB1R cells (CHO K1)). Conditions: 10 μM test substance; CHO K1 cells with rat B1R; agonist Des-Arg9-bradykinin at EC80.
T2 construct: expressed in transfected cells; host or cells: CHO K1 cells, stably transfected
T2 sequence (P97583 1-337): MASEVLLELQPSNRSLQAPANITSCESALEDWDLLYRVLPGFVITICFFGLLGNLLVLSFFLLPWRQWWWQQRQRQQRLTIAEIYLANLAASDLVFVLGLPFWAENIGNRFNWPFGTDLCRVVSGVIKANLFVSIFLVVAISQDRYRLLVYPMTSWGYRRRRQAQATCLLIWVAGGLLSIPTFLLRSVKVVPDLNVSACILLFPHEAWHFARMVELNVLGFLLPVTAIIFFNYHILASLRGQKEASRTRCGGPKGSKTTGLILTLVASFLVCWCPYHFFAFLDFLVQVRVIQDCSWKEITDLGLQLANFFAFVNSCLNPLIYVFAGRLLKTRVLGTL
Type: cell-based
Description: as §1, §2, §3, §4

Row | B1R antagonism, rat [10 μM] % inhibition [%] | SMILES
2 | 100 | COc1cc(C)c(S(=O)(=O)N2CCCc3ccc(C(=O)N4CCC5(CC4)CCN(c4ccncc4)CC5)cc32)c(C)c1 [G_CC-056, [1-[(4-Methoxy-2,6-dimethyl-phenyl)sulfonyl]-1,2,3,4-tetrahydro-quinolin-7-yl]-(3-pyridin-4-yl-3,9-diazaspiro[5.5]undecan-9-yl)-methanone]

Same assay, conditions: 10 μM test substance; CHO K1 cells with rat B1R; agonist Des-Arg9-bradykinin at EC80; read-out: B1R antagonism, rat [10 μM] % inhibition

Row | SMILES | inhibition at 10 µM [%]
3 | COc1cc(C)c(S(=O)(=O)N2CCc3ccc(C(=O)N4CCC5(CCN(Cc6ccccc6)C5)C4)cc32)c(C)c1 (centres unmarked) [G_CC-007, (7-Benzyl-2,7-diazaspiro[4.4]nonan-2-yl)(1-(4-methoxy-2,6-dimethylphenylsulfonyl)indoline-6-yl)methanone] | 59
4 | COc1cc(C)c(S(=O)(=O)N2CCCc3ccc(C(=O)N4CCC5(CC4)CCN(Cc4ccccc4)C5=O)cc32)c(C)c1 [G_CC-026, 2-Benzyl-8-(1-(4-methoxy-2,6-dimethylphenylsulfonyl)-1,2,3,4-tetrahydroquinoline-7-carbonyl)-2,8-diazaspiro[4.5]decan-1-one] | 58
5 | COc1cc(C)c(S(=O)(=O)N2CCc3ccc(C(=O)N4CCC5(CC4)CCN(Cc4ccc(F)cc4)C5=O)cc32)c(C)c1 [G_CC-006, 2-(4-Fluorobenzyl)-8-(1-(4-methoxy-2,6-dimethylphenylsulfonyl)indoline-6-carbonyl)-2,8-diazaspiro[4.5]decan-1-one] | 71
6 | O=C(c1ccc2c(c1)CN(C(=O)c1ccccc1Cl)C2)N1CCC2(CC1)CCN(Cc1ccc(F)cc1)C2=O [G_CC-018, 8-(2-(2-Chlorobenzoyl)isoindoline-5-carbonyl)-2-(4-fluorobenzyl)-2,8-diazaspiro[4.5]decan-1-one] | 51
7 | COc1cc(C)c(S(=O)(=O)N2CCc3ccc(C(=O)N4CCC5(CC4)CCN(c4ccncc4)CC5)cc32)c(C)c1 [G_CC-008, (1-(4-Methoxy-2,6-dimethylphenylsulfonyl)indolin-6-yl)(9-(pyridin-4-yl)-3,9-diazaspiro[5.5]undecan-3-yl)methanone] | 100
8 | COc1cc(C)c(S(=O)(=O)N2CCCc3ccc(C(=O)N4CCC5(CC4)C(=O)N(C)CC5c4ccc(F)cc4)cc32)c(C)c1 (centres unmarked) [G_CC-025, 4-(4-Fluorophenyl)-8-(1-(4-methoxy-2,6-dimethylphenylsulfonyl)-1,2,3,4-tetrahydroquinoline-7-carbonyl)-2-methyl-2,8-diazaspiro[4.5]decan-1-one] | 51
9 | COc1cc(C)c(S(=O)(=O)N2CCc3ccc(C(=O)N4CCC5(CC4)CCN(Cc4ccccc4)C5=O)cc3C2)c(C)c1 [G_CC-040, 2-Benzyl-8-(2-(4-methoxy-2,6-dimethylphenylsulfonyl)-1,2,3,4-tetrahydroisoquinoline-7-carbonyl)-2,8-diazaspiro[4.5]decan-1-one] | 70
10 | COc1cc(C)c(S(=O)(=O)N2CCCc3ccc(C(=O)N4CCC5(CCN(Cc6ccccc6)C5)C4)cc32)c(C)c1 (centres unmarked) [G_CC-027, (7-Benzyl-2,7-diazaspiro[4.4]nonan-2-yl)(1-(4-methoxy-2,6-dimethylphenylsulfonyl)-1,2,3,4-tetrahydroquinolin-7-yl)methanone] | 58
11 | O=C(c1ccc2c(c1)N(C(=O)c1ccccc1Cl)CC2)N1CCC2(CC1)CCN(c1ccncc1)CC2 [G_CC-009, (1-(2-Chlorobenzoyl)indolin-6-yl)(9-(pyridin-4-yl)-3,9-diazaspiro[5.5]undecan-3-yl)methanone] | 78
12 | COc1cc(C)c(S(=O)(=O)N2CCc3ccc(C(=O)N4CCC5(CC4)CCN(Cc4ccc(F)cc4)C5=O)cc3C2)c(C)c1 [G_CC-039, 2-(4-Fluorobenzyl)-8-(2-(4-methoxy-2,6-dimethylphenylsulfonyl)-1,2,3,4-tetrahydroisoquinoline-7-carbonyl)-2,8-diazaspiro[4.5]decan-1-one] | 71

Other lines, results leading:

Row | inhibition at 10 µM [%] | SMILES
13 | 92 | O=C(c1ccc2c(c1)CN(C(=O)c1ccccc1Cl)CC2)N1CCC2(CC1)CCN(c1ccncc1)CC2 [G_CC-045, (2-(2-Chlorobenzoyl)-1,2,3,4-tetrahydroisoquinolin-7-yl)(9-(pyridin-4-yl)-3,9-diazaspiro[5.5]undecan-3-yl)methanone]
14 | 84 | COc1cc(C)c(S(=O)(=O)N2CCCc3ccc(CC(=O)N4CCC5(CC4)CCN(Cc4ccccc4)C5=O)cc32)c(C)c1 [G_CC-053, 2-Benzyl-8-(2-(1-(4-methoxy-2,6-dimethylphenylsulfonyl)-1,2,3,4-tetrahydroquinolin-7-yl)acetyl)-2,8-diazaspiro[4.5]decan-1-one]
15 | 74 | COc1cc(C)c(S(=O)(=O)N2CCc3ccc(C(=O)N4CCC5(CC4)C(=O)NCN5c4ccccc4)cc3C2)c(C)c1 [G_CC-043, 8-(2-(4-Methoxy-2,6-dimethylphenylsulfonyl)-1,2,3,4-tetrahydroisoquinoline-7-carbonyl)-1-phenyl-1,3,8-triazaspiro[4.5]decan-4-one]
16 | 64 | COc1cc(C)c(S(=O)(=O)N2CCc3ccc(C(=O)N4CCC5(CCN(Cc6ccccc6)C5)C4)cc3C2)c(C)c1 (centres unmarked) [G_CC-041, (7-Benzyl-2,7-diazaspiro[4.4]nonan-2-yl)(2-(4-methoxy-2,6-dimethylphenylsulfonyl)-1,2,3,4-tetrahydroisoquinolin-7-yl)methanone]
17 | 71 | COc1cc(C)c(S(=O)(=O)N2CCCc3ccc(CC(=O)N4CCC5(CCN(Cc6ccccc6)C5)C4)cc32)c(C)c1 (centres unmarked) [G_CC-054, 1-(7-Benzyl-2,7-diazaspiro[4.4]nonan-2-yl)-2-(1-(4-methoxy-2,6-dimethylphenylsulfonyl)-1,2,3,4-tetrahydroquinolin-7-yl)ethanone]
